Literature values as cited in patent US20240062912A1, “METHODS FOR DETERMINING LIVER FUNCTION COMPRISING A MULTI-COMPARTMENTAL MODEL” (HepQuant, LLC, priority 2022, published 2024).

Settings: cited from earlier work
[1] = healthy controls, previous studies

Compound: [2H]C1([2H])C[C@@]2(C)[C@H](C[C@@H](O)[C@@H]3[C@@H]2C[C@H](O)[C@]2(C)[C@@H]([C@H](C)CCC(=O)O)CC[C@@H]32)C([2H])([2H])[C@@H]1O [d4-CA, cholic-acid-2,2,4,4-d4]
- SHUNT (diseased liver): 30-90%
- STAT (diseased liver): 0.6 to 5 µM
- portal HFR (FLOW) (diseased liver): 20 to 2 mL/min/kg
- average HFR (FLOW) [1]: 1.8 L/h/kg
- average SHUNT [1]: ~20%
- average STAT value [1]: ~0.4
